Conditions: Liquid, Vibrating wire viscometry

FC(F)(F)/C=C/Cl [(E)-1-chloro-3,3,3-trifluoroprop-1-ene]
Conditions	viscosity [mPa·s]
243.14 K, 5000 kPa	0.5536
243.15 K, 200 kPa	0.5325
243.15 K, 1000 kPa	0.542
243.15 K, 10000 kPa	0.5859
243.15 K, 20000 kPa	0.6281
243.15 K, 30000 kPa	0.6899
243.15 K, 40000 kPa	0.7324
253.14 K, 20000 kPa	0.5583
253.15 K, 200 kPa	0.4733
253.15 K, 1000 kPa	0.4782
253.15 K, 5000 kPa	0.4887
253.15 K, 10000 kPa	0.5179
253.15 K, 30000 kPa	0.6008
253.15 K, 40000 kPa	0.6521
263.14 K, 200 kPa	0.4168
263.15 K, 1000 kPa	0.4194
263.15 K, 5000 kPa	0.433
263.15 K, 10000 kPa	0.455
263.15 K, 20000 kPa	0.4998
263.15 K, 30000 kPa	0.539
263.16 K, 40000 kPa	0.5767
273.14 K, 30000 kPa	0.4792
273.15 K, 200 kPa	0.3733
273.15 K, 1000 kPa	0.3741
273.15 K, 5000 kPa	0.3892
273.15 K, 10000 kPa	0.4091
273.15 K, 20000 kPa	0.4448
273.15 K, 40000 kPa	0.5197
283.14 K, 200 kPa	0.3347
283.14 K, 10000 kPa	0.3688
283.15 K, 1000 kPa	0.3363
283.15 K, 5000 kPa	0.351
283.15 K, 20000 kPa	0.4033
283.15 K, 30000 kPa	0.4368
283.15 K, 40000 kPa	0.4708
293.14 K, 20000 kPa	0.3656
293.14 K, 40000 kPa	0.428
293.15 K, 200 kPa	0.3004
293.15 K, 1000 kPa	0.3033
293.15 K, 5000 kPa	0.316
293.15 K, 10000 kPa	0.3332
293.15 K, 30000 kPa	0.3971
303.15 K, 200 kPa	0.2719
303.15 K, 1000 kPa	0.2743
303.15 K, 5000 kPa	0.2874
303.15 K, 10000 kPa	0.3033
303.15 K, 20000 kPa	0.3337
303.15 K, 30000 kPa	0.3635
303.16 K, 40000 kPa	0.393
313.15 K, 300 kPa	0.2464
313.15 K, 10000 kPa	0.2767
313.15 K, 20000 kPa	0.3058
313.15 K, 30000 kPa	0.3337
313.15 K, 40000 kPa	0.3611
313.16 K, 1000 kPa	0.2489
313.16 K, 5000 kPa	0.2611
323.14 K, 40000 kPa	0.3345
323.15 K, 400 kPa	0.2243
323.15 K, 1000 kPa	0.2267
323.15 K, 5000 kPa	0.2393
323.15 K, 10000 kPa	0.254
323.15 K, 20000 kPa	0.2819
323.15 K, 30000 kPa	0.3084
333.15 K, 500 kPa	0.2047
333.15 K, 1000 kPa	0.2069
333.15 K, 5000 kPa	0.2192
333.15 K, 10000 kPa	0.2344
333.15 K, 20000 kPa	0.262
333.15 K, 30000 kPa	0.2888
333.15 K, 40000 kPa	0.3147
343.14 K, 30000 kPa	0.2702
343.14 K, 40000 kPa	0.2946
343.15 K, 600 kPa	0.1887
343.15 K, 1000 kPa	0.1903
343.15 K, 5000 kPa	0.2029
343.15 K, 10000 kPa	0.2179
343.15 K, 20000 kPa	0.245
353.14 K, 10000 kPa	0.1999
353.14 K, 30000 kPa	0.2503
353.15 K, 5000 kPa	0.1846
353.15 K, 20000 kPa	0.2277
353.15 K, 40000 kPa	0.2733
363.15 K, 5010 kPa	0.1701
363.15 K, 10000 kPa	0.1845
363.15 K, 20000 kPa	0.2107
363.15 K, 40000 kPa	0.257
363.16 K, 30000 kPa	0.2345
373.14 K, 40000 kPa	0.2449
373.15 K, 5000 kPa	0.1581
373.15 K, 10000 kPa	0.1734
373.15 K, 20000 kPa	0.1996
373.15 K, 30000 kPa	0.2229
